From patent US9862748B2, “Peptide compounds and methods of production and use thereof” (priority 2012, dated 2018)

Key:
[1] = tested on: swine skin wounds; assay: Swine full thickness excisional dermal wound model, wound area; format: in vivo
Procedure: In this Example, peptide compounds of the presently disclosed and claimed inventive concept(s) were evaluated as to their activity on the dermal wound healing process in a clinically relevant swine full thickness excisional wound model. Three different peptide formulations (Group B, Peptide 95-122 (SEQ ID NO: 26); Group C, Peptide 120-146WH (SEQ ID NO: 31); and Group D, Peptide 120-146QH-5RMP (SEQ ID NO: 33)) were each evaluated at the same concentration (3 mg/ml). Sterile saline served as the control (Group A).
Full thickness excisional wounds were induced on the dorsum of swine (N=3) using a 1.0 cm biopsy punch. Treatments were administered (0.20 ml) to each wound (N=6 wounds per group), and the wounds were dressed with standard occlusive dressing ([…]™, 3M Corporation, St. Paul, Minn.). Treatments were reapplied daily and dressings changed. Clinical wound healing observations and wound area (2 mm) measurements were performed on days 0, 3, 5, 7, 10, and 14 post-wounding. Wound area (2 mm) data were expressed as percentage (%) of wound healing. Animals were terminated on day 14 with wounds harvested and processed for histological evaluation. […] All peptide formulation treatment groups healed faster with greater rate of closure and re-epithelialization over time, as compared to the saline control (Group A).

[2] = tested on: mouse cornea (corneal epithelial abrasion); assay: In vivo model of corneal wound healing; conditions: treated at 0 and 16 hours; 95-122 10^−5 M; 120-146WH 10^−8 M or 10^−6 M; HB-EGF 250 ng/ml
[3] = tested on: Acinetobacter baumannii ATCC® BAA-747™; format: cell-based; conditions: 3.12-25 μM; 60 minutes
Method in brief: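 Peptides at 25, 12.5, 6.25 and 3.12 μM were incubated with 1×10^6 CFU/ml bacteria at pH 5.5 or 7.2, with tryptone saline as negative control and gentamicin (4 μg/ml) as positive control. Incubation was 60 min for A. baumannii and 180 min for P. aeruginosa. Surviving CFU counted after overnight plating, expressed as log reduction in CFU/ml.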

[4] = 3 mg/ml, 0.20 ml per wound, reapplied daily

Sequence: LDREANLTSSVTILPLPLQNATVEAGTR (listed as Homo sapiens) [Peptide 95-122]
- Mean Wound Healing (%) Day 0 [1, 4]: 0.0%
- Mean Wound Healing (%) Day 3 [1, 4]: 28.9%
- Mean Wound Healing (%) Day 5 [1, 4]: 41.5%
- Mean Wound Healing (%) Day 7 [1, 4]: 70.8%
- Mean Wound Healing (%) Day 10 [1, 4]: 99.7%
- Mean Wound Healing (%) Day 14 [1, 4]: 100.0%
- dermal wound healing ([1]; topical 3 mg/ml over 14 days, vs saline): accelerate dermal wound healing
- corneal wound healing versus vehicle [2]: promotes corneal wound healing
- activity against Acinetobacter at either pH (5.5, 7.2) [3]: not active
